US20110003760A1, “ABNORMAL PROTEIN REMOVING METHOD” (priority 2005, published 2011)

What was measured:
[1] = test system: carbonylated protein in three-dimensional human skin model TESTSKIN (LSE-high); assay: Carbonylated protein in three-dimensional human skin model, Western blotting (DNPH); assay type: cell-based; conditions: for Relative photographic density (carbonylated protein): untreated without UV = 100%
Method: (§1) Three-dimensional human skin models are widely used in safety evaluation and effectiveness evaluation as a simulated model of human skin. In this test, TESTSKIN (LSE-high) (Toyobo Co., Ltd.) was used as a three-dimensional human skin model.
(§2) A culture medium was added to the outer well of TESTSKIN (LSE-high) and cultured for 24 hours. UVA and UVB were irradiated at 10 J/cm^2 and 100 mJ/cm^2, respectively. UVB was irradiated for 2 minutes at a UV intensity of […] using FL20S-E-30/DMR (Clinical Supply Co., Ltd.) to achieve a total irradiation dose of 100 mJ/cm^2. UV intensity was measured using a UV MONITOR MS-211-I (Eiko Instruments Co., Ltd.).
As a control group, three-dimensional human skin models not irradiated with UVA or UVB were also prepared.
Thereafter, the culture solution was changed and each agent was added by 100 μl onto the tissues in the assay ring, after which the medium was cultured for 36 hours. Thereafter, the tissues were collected and a tissue extraction solution (50 mM Tris-HCl (pH 7.5), 0.5% (Octylphenoxy) polyethoxyethanol (Sigma-Aldrich Corp.)) was added, and then the mixture was homogenized using a Teflon (registered trademark) homogenizer. The homogenized mixture was centrifuged for 30 minutes at 10,000×G to remove tissue fragments, and then dialyzed overnight in distilled water at 4° C. Thereafter, the dialyzed mixture was freeze-dried to remove water. A tissue extraction solution was added to obtain a ×20 concentrate, and this concentrate was used as a three-dimensional skin model extract sample.
In this test, 2,4-dinitrophenyl hydrazine (DNPH), which specifically bonds with the carbonyl group in the protein produced by oxidation damage, was used to label carbonylated protein, and then detection was performed using an anti-DNPH antibody that specifically bonds with DNPH.
The specific method is explained below. DNPH protein was detected from the protein in the sample by means of Western blotting using a DNPH kit (Oxi Blot™ Protein Oxidation Detection Kit; Chemicon International Inc.). Detection was performed by exposing PVDF membranes to light using a […] (ECL PLUS; Amarsham PLC), and an automatic developer (FPM100; FUJIFILM Medical Co., Ltd.) was used to transfer images. A densitometer (Molecular Dynamics Inc.) was then used to analyze the images to quantify the photographic density. For your information, protein in the sample was reduced and measured as deemed appropriate. In this case, 2-mercaptoethanol was used as a reducing agent and the mixture was heated for 5 minutes at 100° C. to sever the disulfide bond.
Based on the above results, it is clear that Bletilla striata extract and silybin suppress accumulation of carbonylated protein in a three-dimensional skin model in a manner dependent on the concentration. Accordingly, whether or not a combined use of Bletilla striata extract and silybin would synergistically suppress accumulation of carbonylated protein was evaluated. Also, whether or not a combined use of silybin and soybean saponin, a substance known to have an action to suppress accumulation of carbonylated protein, would synergistically suppress accumulation of carbonylated protein was evaluated. As a result, regardless of whether or not UV light was irradiated using silybin (3 μM) in combination with Bletilla striata extract (0.1%; final extract concentration of 0.001%), or using silybin (3 μM) in combination with soybean saponin (0.0005%), suppressed the accumulation of carbonylated protein synergistically compared to when a sample was treated with silybin (3 μM), Bletilla striata extract (0.1%; final extract concentration of 0.001%) or soybean saponin (0.0005%) alone, as far as accumulation of carbonylated protein in a three-dimensional skin model was concerned (FIG. 7 and Table 7; results of non-reduced protein).

[2] = test system: carbonylated type I collagen in three-dimensional human skin model; assay: Carbonylated collagen in three-dimensional human skin model, type I collagen immunoprecipitation and Western blotting; assay type: cell-based; conditions: silybin 3 μM, Bletilla striata extract 0.1%, soybean saponin 0.0005%, alone or combined; for Relative photographic density (carbonylated collagen): Table 8, non-reduced protein, untreated without UV = 100%
Method: as §1, §2
Thereafter, the culture solution was changed and each agent was added by 100 μl onto the tissues in the assay ring, after which the medium was cultured for 36 hours. […]
Using the protein derived from the three-dimensional human skin model extract treated with each agent, type I collagen was immunoprecipitated by means of a known method (Mizushima, et al., Jpn. J. Cancer Res. Vol. 93, pp. 652-659, 2002). […] The immunoprecipitate was washed three times using a STEN buffer solution, after which 50 μl of a SDS-PAGE sample buffer solution was added and the amount of carbonylated protein and amount of type I collagen were measured by means of Western blotting.
From the results shown in FIG. 7 and Table 7, it is clear that using silybin in combination with Bletilla striata extract, or using silybin in combination with soybean saponin, synergistically suppresses carbonylated protein. Next, whether or not carbonylation of type I collagen would be suppressed by using silybin in combination with Bletilla striata extract, or using silybin in combination with soybean saponin, was evaluated to check the possibility of using such combinations to remove oxidized collagen that accumulates with age to cause lines, sagging, dull complexion and other signs of aging skin. […]

[3] = test system: three-dimensional human skin model; assay: Cell toxicity at treatment concentrations in three-dimensional human skin model; conditions: at 3 and 10 μM

Compound: COc1cc(C2Oc3cc([C@H]4Oc5cc(O)cc(O)c5C(=O)[C@@H]4O)ccc3OC2CO)ccc1O (some centres unmarked) [Silybin, silybin]
- Relative photographic density (carbonylated protein) ([1]; Table 7, non-reduced protein, head printed UV (−), silybin 3 μM, Bletilla striata extract 0.1%, soybean saponin 0.0005%, alone or combined): 300%
- Relative photographic density (carbonylated protein) ([1]; Table 7, non-reduced protein, first column UV (−), silybin 3 μM, Bletilla striata extract 0.1%, soybean saponin 0.0005%, alone or combined): 60%
- amount of carbonylated protein compared to the sample not given any treatment under UV irradiation ([1]; non-reduced protein, 3 μM): 30%
- amount of carbonylated protein compared to the sample not given any treatment under UV irradiation ([1]; non-reduced protein, 10 μM): 9%
- amount of carbonylated protein compared to the sample not given any treatment under UV irradiation ([1]; non-reduced protein, silybin 3 μM, Bletilla striata extract 0.1%, soybean saponin 0.0005%, alone or combined): 60%
- Relative photographic density (carbonylated protein) ([1]; non-reduced protein, treatment concentration 3 μM, UV (+)): 95%
- Relative photographic density (carbonylated protein) ([1]; non-reduced protein, treatment concentration 3 μM, UV (−)): 55%
- Relative photographic density (carbonylated protein) ([1]; non-reduced protein, treatment concentration 10 μM, UV (+)): 30%
- Relative photographic density (carbonylated protein) ([1]; non-reduced protein, treatment concentration 10 μM, UV (−)): 8%
- amount of carbonylated protein compared to the sample not given any treatment under UV irradiation ([1]; reduced protein, 3 μM): 25%
- amount of carbonylated protein compared to the sample not given any treatment under UV irradiation ([1]; reduced protein, 10 μM): 10%
- Relative photographic density (carbonylated protein) ([1]; reduced protein, treatment concentration 3 μM, UV (+)): 85%
- Relative photographic density (carbonylated protein) ([1]; reduced protein, treatment concentration 3 μM, UV (−)): 50%
- Relative photographic density (carbonylated protein) ([1]; reduced protein, treatment concentration 10 μM, UV (+)): 35%
- Relative photographic density (carbonylated protein) ([1]; reduced protein, treatment concentration 10 μM, UV (−)): 5%
- Relative photographic density (carbonylated protein) ([1]; reduced protein, treatment concentration 10 μM, UV (−), listed as silybin): 10%
- Relative photographic density (carbonylated collagen) ([2]; head printed UV (−)): 430%
- Relative photographic density (carbonylated collagen) ([2]; first column UV (−)): 72%
- amount of carbonylated collagen compared to the sample not given any treatment under UV irradiation ([2]; non-reduced protein, UV irradiation): 72%
- cell toxicity [3]: does not occur
